Earlier results, collected in patent US20060211721A1, “Nutraceutical formulation of a cognitive enhancement system” (priority 2005, published 2006).

Conditions: background statement

For C/C=C1\[C@H]2C=C(C)C[C@]1(N)c1ccc(=O)[nH]c1C2 [huperzine, Huperzine A], the oral bioavailability is listed as “high oral bioavailability” and the “penetration through the blood brain barrier” value is listed as “good penetration through the blood brain barrier”.
